Paper PMC7656302 (Cancers, 2020)

Columns and labels:
[1] = clinical; settings: human, in vivo
Description: Concentration-time curve and PK parameters were analyzed for each compound. Maximal concentrations (Cmax) and the time to reach the Cmax (Tmax) were graphically identified and the AUC was calculated with a non-compartmental method.

[2] = system: HIF-1α; settings: colon cancers, oxygen concentrations from 5 to 1%; cited from earlier work

Row | concentration at 8 day ([1]; D8 rapamycin concentrations) [ng/mL] | Tmax ([1]; Rapamycin D1 Tmax) [h] | AUC ([1]; mean AUC of D8 rapamycin) [ng·h/mL] | Tmax ([1]; Irinotecan D1 Tmax) [h] | AUC ([1]; irinotecan mean AUC) [ng·h/mL] | AUC ([1]; mean AUC of irinotecan) [ng·h/mL] | AUC ([1]; mean irinotecan AUCs) [ng·h/mL] | SMILES | inhibition of HIF-1α [2]
1 | 6.75 | 3.5 | 176 | – | – | – | – | CO[C@H]1C[C@@H]2CC[C@@H](C)[C@@](O)(O2)C(=O)C(=O)N2CCCC[C@H]2C(=O)O[C@H]([C@H](C)C[C@@H]2CC[C@@H](O)[C@H](OC)C2)CC(=O)[C@H](C)/C=C(\C)[C@@H](O)[C@@H](OC)C(=O)[C@H](C)C[C@H](C)/C=C/C=C/C=C/1C [rapamycin] | –
2 | – | – | – | 1.67 | 6740 | 6870 | 5970 | CCc1c2c(nc3ccc(OC(=O)N4CCC(N5CCCCC5)CC4)cc13)-c1cc3c(c(=O)n1C2)COC(=O)[C@]3(O)CC [irinotecan] | high inhibition of HIF-1α
